Measurements reported in patent US20080292736A1, “Bioavailability enhancing activity of carum carvi extracts and fractions thereof” (COUNCIL OF SCIENTIFIC AND INDUSTRIAL RESEARCH, priority 2001, published 2008).
Read-outs that look alike come from different tables or passages of the source.

Assays:
[1] = rat, in vivo; for % Enhancement in bioavailability, BE from Zingiber officinale: 35 mg/kg
[2] = Enhancement of bioavailability of drugs given to rats with bioenhancers (plasma drug level by HPLC); conditions: for % Enhancement in bioavailability, BE from Zingiber officinale: drug with Zingiber officinale 50% alcoholic extract of fresh ginger 35 mg/kg; for % Enhancement in bioavailability, Piperine as BE: drug with piperine 8 mg/kg; for % Enhancement in bioavailability, Carum carvi (Cc) Frac 1.: nutraceutical with Carum carvi Fraction No. 1 15 mg/kg; for % Enhancement in bioavailability, Carum carvi + Zingiber officinale, Frac 1. (Cc): nutraceutical with Carum carvi Fraction No. 1 and Zingiber officinale; for % Enhancement in bioavailability, Carum carvi + piperine, Frac 1. (Cc): nutraceutical with Carum carvi Fraction No. 1 and piperine; for % Enhancement in bioavailability, Carum carvi (Cc) Extr.: nutraceutical with Carum carvi extract 30 mg/kg; for % Enhancement in bioavailability, Carum carvi + Zingiber officinale, Extr. (Cc): nutraceutical with Carum carvi extract and Zingiber officinale; for % Enhancement in bioavailability, Carum carvi + piperine, Extr. (Cc): nutraceutical with Carum carvi extract and piperine

Compound | % Enhancement in bioavailability, BE from Carum carvi [1] [%] | % Enhancement in bioavailability, Carum carvi + Piperine [1] [%] | % Enhancement in bioavailability, Carum carvi + Zingiber officinale [1] [%] | % Enhancement in bioavailability, BE from Zingiber officinale [1] | % Enhancement in bioavailability, BE from Zingiber officinale ([2]; drug dose as in row) | % Enhancement in bioavailability, Piperine as BE ([2]; drug dose as in row) | % Enhancement in bioavailability, Carum carvi (Cc) Frac 1. [2] | % Enhancement in bioavailability, Carum carvi + Zingiber officinale, Frac 1. (Cc) [2] | % Enhancement in bioavailability, Carum carvi + piperine, Frac 1. (Cc) [2] | % Enhancement in bioavailability, Carum carvi (Cc) Extr. [2] | % Enhancement in bioavailability, Carum carvi + Zingiber officinale, Extr. (Cc) [2] | % Enhancement in bioavailability, Carum carvi + piperine, Extr. (Cc) [2] | % Enhancement in bioavailability, BE from Carum carvi ([2]; drug with Carum carvi bioenhancer (aqueous or 50% alcoholic extract 30 mg/kg or Fraction No. 1 15 mg/kg), drug dose mg/kg) [%] | % Enhancement in bioavailability, Carum carvi + Zingiber officinale ([2]; drug with Carum carvi bioenhancer and Zingiber officinale 35 mg/kg, drug dose as in row) [%] | % Enhancement in bioavailability, Carum carvi + Piperine ([2]; drug with Carum carvi bioenhancer and piperine 8 mg/kg, drug dose as in row) [%]
NCC[C@H](O)C(=O)N[C@@H]1C[C@H](N)[C@@H](O[C@H]2O[C@H](CN)[C@@H](O)[C@H](O)[C@H]2O)[C@H](O)[C@H]1O[C@H]1O[C@H](CO)[C@@H](O)[C@H](N)[C@H]1O [Amikacin] | 85 | 100 | 92 | Nil | – | – | – | – | – | – | – | – | – | – | –
C=CC1=C(C(=O)O)N2C(=O)[C@@H](NC(=O)/C(=N\OCC(=O)O)c3csc(N)n3)[C@H]2SC1 [Cefixime] | 80 | 79 | 82 | Nil | – | – | – | – | – | – | – | – | – | – | –
Cc1cn([C@H]2C[C@H](N=[N+]=[N-])[C@@H](CO)O2)c(=O)[nH]c1=O [Zidovudine] | – | – | – | – | 105% | 140% | – | – | – | – | – | – | 92 | 87 | 95
[Zn] [Zinc] | – | – | – | – | nil | nil | Nil | Nil | Nil | nil | Nil | nil | – | – | –
Vit B 12 | – | – | – | – | Nil | Nil | nil | Nil | Nil | Nil | Nil | Nil | – | – | –
Vit E | – | – | – | – | Nil | Nil | Nil | Nil | Nil | Nil | Nil | Nil | – | – | –

Next, values leading:

% Enhancement in bioavailability, BE from Carum carvi [1] [%] | % Enhancement in bioavailability, Carum carvi + Piperine [1] [%] | % Enhancement in bioavailability, Carum carvi + Zingiber officinale [1] [%] | % Enhancement in bioavailability, BE from Zingiber officinale [1] | % Enhancement in bioavailability, BE from Zingiber officinale ([2]; drug dose as in row) | % Enhancement in bioavailability, Piperine as BE ([2]; drug dose as in row) | % Enhancement in bioavailability, Carum carvi (Cc) Frac 1. [2] | % Enhancement in bioavailability, Carum carvi + Zingiber officinale, Frac 1. (Cc) [2] | % Enhancement in bioavailability, Carum carvi + piperine, Frac 1. (Cc) [2] | % Enhancement in bioavailability, Carum carvi (Cc) Extr. [2] | % Enhancement in bioavailability, Carum carvi + Zingiber officinale, Extr. (Cc) [2] | % Enhancement in bioavailability, Carum carvi + piperine, Extr. (Cc) [2] | % Enhancement in bioavailability, BE from Carum carvi ([2]; drug with Carum carvi bioenhancer (aqueous or 50% alcoholic extract 30 mg/kg or Fraction No. 1 15 mg/kg), drug dose mg/kg) [%] | % Enhancement in bioavailability, Carum carvi + Zingiber officinale ([2]; drug with Carum carvi bioenhancer and Zingiber officinale 35 mg/kg, drug dose as in row) [%] | % Enhancement in bioavailability, Carum carvi + Piperine ([2]; drug with Carum carvi bioenhancer and piperine 8 mg/kg, drug dose as in row) [%] | Compound
78 | 100 | 90 | 82% | – | – | – | – | – | – | – | – | – | – | – | Nc1nc2c(ncn2COCCO)c(=O)[nH]1 [Acyclovir]
55 | 90 | 86 | 78% | – | – | – | – | – | – | – | – | – | – | – | CC[C@H]1OC(=O)[C@H](C)[C@@H](O[C@H]2C[C@@](C)(OC)[C@@H](O)[C@H](C)O2)[C@H](C)[C@@H](O[C@@H]2O[C@H](C)C[C@H](N(C)C)[C@H]2O)[C@](C)(O)C[C@@H](C)CN(C)[C@H](C)[C@@H](O)[C@]1(C)O [Azithromycin]
67 | 95 | 85 | 68% | – | – | – | – | – | – | – | – | – | – | – | CC1=C(C(=O)O)N2C(=O)[C@@H](NC(=O)[C@H](N)c3ccc(O)cc3)[C@H]2SC1 [Cefadroxil]
– | – | – | – | Nil | Nil | Nil | Nil | Nil | nil | Nil | Nil | – | – | – | Cc1ncc(CO)c(CO)c1O [Vit B 6]
